Test results: article PMC5340040 (BMC Biochemistry, 2017)
No end group written: not given here.

Legend:
[1] = target: T1, MgF-actin (Oryctolagus cuniculus, UniProt P68135); experiment: Extent of F-actin bundling by low speed centrifugation; format: biochemical, rabbit
T1 construct: MgF-actin was polymerized from CaATP-G-actin by 30 min incubation with 2 mM MgCl2 at 22 °C; tissue Pel-Freez Biologicals (Rogers, AR) (acetone powder); host or cells: rabbit back and leg skeletal muscle
Description: CaATP-G-actin was stored in a buffer containing 5 mM TrisHCl, 0.2 mM CaCl2, 0.2 mM ATP, 0.5 mM β-mercaptoethanol, pH 8.0 (CaATP-G-buffer). MgF-actin was polymerized from CaATP-G-actin by 30 min incubation with 2 mM MgCl2 at 22 °C. MgF-actin was diluted for further treatments in MgF-buffer containing 5 mM 3-(N-morpholino) propanesulfonic acid (MOPS), 2 mM MgCl2, 0.2 mM ATP and 0.5 mM DTT, pH 7.4. The concentration of G- and F-actin was determined using the extinction coefficient E^1% 290 = 11.5 cm-^1. (The optical density of actin was measured in the presence of 0.5 M NaOH, which shifts the maximum of absorbance from 280 to 290 nm).
Extent of actin polymerization and bundling was measured by high speed centrifugation at 129,151 x g for 2 h and by low speed centrifugation at 20,800 x g for 8 min, respectively. The centrifugations were carried out at 4 °C. The supernatants were separated by 12% sodium dodecyl sulfate polyacrylamide electrophoresis (SDS−PAGE) and analyzed by densitometry using the TINA 2.07d software.
Bundling was carried out at low ionic strength. a and b bundling kinetics of 4 μM F-actin was followed by light scattering change as described in Methods. […] Upper panels quantitative evaluation of bundling, lower panels, representative SDS-PAGE of the supernatants
Effect of pH on bundling. […]

[2] = target: T1, MgF-actin; experiment: Transglutaminase cross-linking to F-actin; format: binding, rabbit; settings: 22 °C; for effect of phalloidin on extent of F-actin cross-linking: 4 μM F-actin, 8 μM Fl-peptide, 8 μM phalloidin, 0.3 mg/ml TGase, 30 min
Description: Lower panels are representative SDS-PAGE-s. […] Lower panel, SDS-PAGE visualized by fluorescence
Upper panel, quantitative evaluation of SDS-PAGE by densitometry. Lower panel Coomassie blue stained representative SDS-PAGE

[3] = tested on: G-actin; experiment: Inhibition of TGase cross-linking to G-actin by NaCl, DNase1 and cofilin; format: binding, rabbit; settings: 6 μM Fl-histatin, 4 μM G-actin; for effect of NaCl on cross-linking to G-actin: 0.3 mg/ml TGase, 1 min
Description: Here we studied the effect of these agents on the cross-link formation between G-actin and histatins. In these experiments NaCl, histatins, TGase were added simultaneously to G-actin and incubated for 1 min only to avoid significant actin polymerization.
Samples were treated with TGase for 1 min. Upper panel, evaluation of SDS-PAGE. Lower panel, representative SDS-PAGE visualized by Coomassie blue. b Inhibition of cross-linking by DNase1 and cofilin. Samples were treated with TGase for 5 min

[4] = tested on: TG-G-actin; experiment: Cross-linking to TGase pretreated G-actin (TG-G-actin) vs G-actin; cross-linking site; format: binding, rabbit; settings: 4.5 μM Fl-histatin; for cross-linked product with TGase pretreated vs untreated G-actin: 4 μM G-actin or TG-G-actin, 0.3 mg/ml TGase, 30 min, 22 °C; for cross-linking site in the D-loop of G-actin: TG-G-actin (Gln41 blocked)
Description: Preparation of TG-G-actin: 108 μM CaATP-G-actin was incubated with 4 mg/ml TGase at 4 °C for 24 h. After cross-linking samples were run on SDS-PAGE and evaluated by densitometry. Upper panel quantitative evaluation of SDS-PAGE by densitometry. Lower panel representative SDS-PAGE visualized by Coomassie blue

[5] = tested on: subtilisin / trypsin digested G-actin; experiment: Cross-linking to subtilisin or trypsin fragments of G-actin; format: binding, rabbit; settings: 4 μM G-actin, 6 μM Fl-histatin, 0.3 mg/ml TGase, 30 min, 22 °C; for cross-linking to subtilisin fragments (Asp1-Met47 N-terminal, Gly48-Phe375 C-terminal): 1.5 μg/ml subtilisin; for cross-linking to Tyr69-Arg372 C-terminal tryptic fragment: 20 μg/ml trypsin
Description: Trypsin and subtilisin digestions were stopped by 40 μg/ml STI and 1 mM PMSF, respectively. Samples were run on SDS-PAGE. Left, lanes visualized by Coomassie blue; right, lanes visualized by fluorescence, marked by (*). Legend: (a) actin; (b) trypsin digested actin; (c) trypsin digested actin cross-linked with Fl-histatin-3 or Fl-histatin-5; (d) subtilisin digested actin; (e) subtilisin digested actin cross-linked with Fl-histatin-3 or Fl-histatin-5; nf), actin cross-linked with Fl-histatin-3 or Fl-histatin-5. a Fl-histatin-3-actin fragments cross-linked bands; b Fl-histatin-5-actin fragments cross-linked bands. Lane M, molecular weight marker

[6] = tested on: CaATP-G-actin; settings: 22 °C
Description: The reaction was stopped by addition of 1 mM cysteamine. Samples were subjected to 12% SDS-PAGE, visualized by Coomassie blue or fluorescence and evaluated by densitometry.
Samples were treated with TGase at 22 °C for 30 and run on SDS-PAGE and evaluated by densitometry as described in Methods.
Cross-linking with 0.3 mg/ml TGase for 30 min at 22 °C. Upper panel, quantitative evaluation of SDS-PAGE by densitometry.

[7] = tested on: CaATP-G-actin; settings: ref [6], cited from earlier work
Description: Transglutaminase (TGase) catalyzes the formation of isopeptide bonds, which cross-links proximal glutamine and lysine residues in proteins. The TGase reaction produces both intramolecular cross-links in proteins and intermolecular cross-links between proteins and peptides.

[8] = tested on: G-actin; settings: ref [6]; cited from earlier work
[9] = tested on: CaATP-G-actin (skeletal muscle); experiment: Actin polymerization, pyrene-actin fluorescence kinetics; format: biochemical, rabbit; settings: 4 μM CaATP-G-actin; 8 μM histatin-3, 20 μM histatin-5, 7 μM LL-37; pH 6.5, 7.4 and 8.2; 22 °C
Description: Labeling of Mg-F-actin at Cys-374 with pyrene maleimide was carried out according to Kouyama and Mihashi with some modifications. CaATP-G-actin was filtered through a PD-10 column (GE Healthcare) equilibrated with β-mercaptoethanol-free CaATP-G-buffer. After filtration, G-actin (1 mg/ml) was polymerized by 2 mM MgCl2 and 100 mM KCl at 22 °C for 30 min, and reacted with pyrene maleimide (16 μg/ml) on ice, for 1 h. The reaction was terminated with 1 mM DTT. Labeled F-actin was centrifuged at 129,151 x g for 2 h; the pellet was resuspended in Ca-ATP-G-buffer and depolymerized by dialyzing in this buffer for 36 h at 4 °C with twice changing the buffer. Finally, actin was centrifuged again at 129,151 x g for 2 h. […] The concentration of modified actin was determined by the procedure of Bradford using unmodified actin as a standard. The extent of labeling was determined by using pyrene extinction coefficient E344 nm = 22,000 cm^−1M^−1, was ~100%.
Actin polymerization was followed by fluorescence increase (at 365 nm excitation and 386 nm emission wavelengths) of pyrene-labeled G-actin [17], which was added to unlabeled G-actin in 10–15%. The kinetics of bundling of MgF−actin was monitored by increase in light scattering, with both excitation and emission wavelengths adjusted to 450 nm. All fluorescence and light scattering measurements were carried out at 22 °C. […]

[10] = tested on: TG-G-actin; settings: ref [6]; cited from earlier work
Description: TGase catalyzes covalent cross-linking of glutamine and lysine residues in proteins. Since in the histatin-G-actin cross-linking reaction only actin contains glutamine residues, it follows that actin should be the glutamine donor in this case. […] Gln41 seems to be the preferred candidate for this role sinc ...

[11] = tested on: CaATP-G-actin (skeletal muscle); settings: ref [9]; cited from earlier work
Description: The pK of histidine is around pH 6.5 depending on the environment of the residue in the protein structure. This means that its charge changes with pH in the neutral pH region. Histidine is positively charged at slightly acidic pH and neutral above pH 7.0. Since actin polymerization is dependent on the number of positive charges of the polymerizing agent, the effect of pH 6.5, 7.4 and 8.2 on the polymerization of G-actin by histatins was measured (Fig. 1d).

[12] = tested on: actin; settings: cited from earlier work
Description: Actin is a negatively charged structural protein and the most abundant protein in the eukaryotic cells. Actin, released from dead cells, is also present in the saliva. Actin has important roles in cytoskeleton formation, cell division, motility, adhesion, signaling and more. Actin exists in either monomer globular (G) or polymer filament (F) form, which are interconvertible into each other.

[13] = tested on: F-actin bundles; settings: ref [9]; cited from earlier work
Description: Both DNase1 and cofilin are actin binding proteins. DNase1 depolymerizes F-actin filament by binding to the protomer at the filaments ends and forming a tight complex with the protomer by attachment to its DNase1 binding loop (D-loop). […] Cofilin disassembles actin bundles by severing the filaments through its effect on the structure of actin protomers [[19] ...

[14] = 4 μM G- or F-actin, 8 μM histatin-3 or 6 μM LL-37, 0.4 mg/ml TGase

For CC(C)C[C@H](NC(=O)[C@H](Cc1ccc(O)cc1)NC(=O)[C@H](CC(N)=O)NC(=O)[C@H](CO)NC(=O)[C@H](CCCNC(=N)N)NC(=O)[C@H](Cc1ccc(O)cc1)NC(=O)CNC(=O)[C@H](CCCNC(=N)N)NC(=O)[C@H](Cc1c[nH]cn1)NC(=O)[C@H](CO)NC(=O)[C@H](Cc1c[nH]cn1)NC(=O)[C@H](Cc1c[nH]cn1)NC(=O)[C@H](CCCCN)NC(=O)[C@H](CCC(=O)O)NC(=O)[C@H](Cc1c[nH]cn1)NC(=O)[C@H](Cc1ccccc1)NC(=O)[C@H](CCCCN)NC(=O)[C@H](CCCNC(=N)N)NC(=O)[C@H](CCCCN)NC(=O)[C@H](Cc1ccc(O)cc1)NC(=O)CNC(=O)[C@H](Cc1c[nH]cn1)NC(=O)[C@H](Cc1c[nH]cn1)NC(=O)[C@H](CCCNC(=N)N)NC(=O)[C@H](CCCCN)NC(=O)[C@H](C)NC(=O)[C@H](Cc1c[nH]cn1)NC(=O)[C@H](CO)NC(=O)[C@@H](N)CC(=O)O)C(=O)N[C@@H](Cc1ccc(O)cc1)C(=O)N[C@@H](CC(=O)O)C(=O)N[C@@H](CC(N)=O)C(=O)O [histatin-3], the EC50 [1] was 5 µM.

For “Fl-LL-37: tetramethylrhodamine labeled LL-37”, the “effect of phalloidin on extent of F-actin cross-linking” value [2] was “reduces greatly”.

In the case of “Fl-histatin-3: tetramethylrhodamine labeled histatin-3 (DSHAKRHHGYKRKFHEKHHSHRGYRSNYLYDN; also: tetramethylrhodamine label, position not given here)”, the “effect of NaCl on cross-linking to G-actin” value [3] is reported as “NaCl inhibited the cross-linking”, the “effect of phalloidin on extent of F-actin cross-linking” value [2] is reported as “reduces greatly” and the “cross-linked product with TGase pretreated vs untreated G-actin” value [4] is reported as “slightly less actin Fl-histatin-3 cross-linked products formed with TGase pretreated than with untreated G-actin”. The “cross-linking site in the D-loop of G-actin” value [4] was “Gln-49 is the main glutamine donor in the D-loop of actin”, the “cross-linking to subtilisin fragments (Asp1-Met47 N-terminal, Gly48-Phe375 C-terminal)” value [5] was “both fragments can be cross-linked” and the “cross-linking to Tyr69-Arg372 C-terminal tryptic fragment” value [5] was “can be also cross-linked”.

For Fl-histatin-5: FAM labeled histatin-5, the “effect of NaCl on cross-linking to G-actin” value [3] was “NaCl inhibited the cross-linking”, the “inhibitory effect of cofilin on cross-linking, comparison of peptides” value ([3]; cofilin, TGase 5 min) was “less Fl-histatin-5 than with Fl-histatin-3” and the “cross-linked product with TGase pretreated vs untreated G-actin” value [4] was “the same amount of cross-linked product formed”. The “cross-linking site in the D-loop of G-actin” value [4] was “does not cross-link to Gln41 of G-actin”, the “cross-linking to subtilisin fragments (Asp1-Met47 N-terminal, Gly48-Phe375 C-terminal)” value [5] was “cross-linked only to the C- but not to the N-terminal G-actin fragment” and the “cross-linking to Tyr69-Arg372 C-terminal tryptic fragment” value [5] was “can be also cross-linked”. For the same compound, the “quantity of cross-linked product with G-actin, comparison” value ([6]; 4 μM CaATP-G-actin, 4–8 μM Fl-histatin, 0.3 mg/ml TGase) was “consistently greater than that of Fl-histatin-3” and the “extent of cross-linking to both G- and F-actin, comparison” value ([6]; 4 μM G- and F-actin, 6 μM Fl-histatin, 0.3 mg/ml TGase) was “larger than that of Fl-histatin-3”.

For “LLGDFFRKSKEKIGKEFKRIVQRIKDFLRNLVPRTES [LL-37]”, the “cross-linking of LL-37 to actin by TGase” value [7, 25] is given as “can be cross-linked to actin by TGase”, the “binding site on actin” value [7] is given as “binds preferentially to the D-loop of actin” and the “effect of pH on extent of F-actin bundling” value ([1]; 8 μM MgF-actin, 5 μM histatin-3, 12 μM histatin-5, 5 μM LL-37, pH 6.5, 7.3 and 8.2 (Fig. 2d), 3–16 μM histatins at pH 6.5 and 7.4 (Fig. S1)) is given as “contrary to the bundling by LL-37”. For the same compound, the “effect of 200 mM NaCl on extent of cross-linking by LL-37” value [8] was “did not affect the extent of cross-linking”, the “effect of pH on kinetics of actin polymerization” value [9] was “much less pH-dependent than the polymerization by histatins” and the “extent of cross-link formation with F-actin vs G-actin” value [2, 14] was “significantly less than with G-actin”. For the same compound, the “cross-linking site of LL-37 on actin” value [10] was “preferentially cross-linked to Gln-49”, the “concentration at which G-actin is polymerized at neutral pH” value [11] was “at about the same concentration as histatin-3” and the “polymerization and bundling of actin, LL-37” value ([12]; ref [9]) was “polymerize G-actin to F actin and bundle F-actin into actin bundles”. For the same compound, the “disassembly of polycation induced actin bundles by DNase1 and cofilin” value [13] was “DNase1 and cofilin disassemble LL-37 and lysozyme -induced actin bundles” and the “cross-linking to G- and F-actin by TGase” value [6, 14] was “cross-linked to both G- and F-actin like LL-37”.

In the case of “lysozyme: positively charged protein that interacts with actin”, the “polymerization and bundling of actin, lysozyme” value ([12]; ref [8]) is listed as “polymerize G-actin to F actin and bundle F-actin into actin bundles”.
